{
  "source": "ChEMBL document CHEMBL4706551",
  "about": "“Rational design of new multitarget histamine H receptor ligands as potential candidates for treatment of Alzheimer's disease” (Eur J Med Chem, 2020)",
  "key": {"[1]": {"molecular_target": "Cholinesterase (Homo sapiens, UniProt P06276)", "sequence (P06276 whole entry)": "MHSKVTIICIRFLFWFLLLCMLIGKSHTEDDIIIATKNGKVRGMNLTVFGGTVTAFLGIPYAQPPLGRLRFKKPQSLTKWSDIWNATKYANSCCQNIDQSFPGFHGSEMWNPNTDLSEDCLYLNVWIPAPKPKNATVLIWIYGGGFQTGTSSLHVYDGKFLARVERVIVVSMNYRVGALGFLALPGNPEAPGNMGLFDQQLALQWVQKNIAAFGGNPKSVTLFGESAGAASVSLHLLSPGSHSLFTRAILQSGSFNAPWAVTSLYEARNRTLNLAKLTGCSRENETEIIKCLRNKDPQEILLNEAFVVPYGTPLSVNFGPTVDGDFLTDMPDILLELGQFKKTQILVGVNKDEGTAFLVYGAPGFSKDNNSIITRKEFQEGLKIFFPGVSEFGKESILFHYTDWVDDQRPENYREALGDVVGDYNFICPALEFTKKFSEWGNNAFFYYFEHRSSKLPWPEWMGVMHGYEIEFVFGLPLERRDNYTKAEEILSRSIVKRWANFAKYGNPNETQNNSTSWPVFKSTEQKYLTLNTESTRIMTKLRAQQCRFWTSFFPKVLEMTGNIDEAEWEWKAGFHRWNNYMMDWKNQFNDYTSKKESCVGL", "description": "Inhibition of human BuChE by spectrophotometric based Ellman's method"}, "[2]": {"tested_on": "Mus musculus", "test": "(§1) Antiallodynic activity in oxaliplatin-induced peripheral neuropathy pain CD-1 mouse model assessed as inhibition of late-phase tactile allodynia by measuring pain sensitivity threshold at 15 mg/kg administered with compound intraperitoneally at 7 days after oxaliplatin stimulation and measured after 30 mins by von Frey test (reference value: 65.3%)", "assay_type": "functional", "set-up": "scale not given: the % may be the effect or the level left", "conditions": "0.5 h"}, "[3]": {"molecular_target": "Cholinesterase (Equus caballus) (UniProt P81908)", "sequence (P81908 whole entry)": "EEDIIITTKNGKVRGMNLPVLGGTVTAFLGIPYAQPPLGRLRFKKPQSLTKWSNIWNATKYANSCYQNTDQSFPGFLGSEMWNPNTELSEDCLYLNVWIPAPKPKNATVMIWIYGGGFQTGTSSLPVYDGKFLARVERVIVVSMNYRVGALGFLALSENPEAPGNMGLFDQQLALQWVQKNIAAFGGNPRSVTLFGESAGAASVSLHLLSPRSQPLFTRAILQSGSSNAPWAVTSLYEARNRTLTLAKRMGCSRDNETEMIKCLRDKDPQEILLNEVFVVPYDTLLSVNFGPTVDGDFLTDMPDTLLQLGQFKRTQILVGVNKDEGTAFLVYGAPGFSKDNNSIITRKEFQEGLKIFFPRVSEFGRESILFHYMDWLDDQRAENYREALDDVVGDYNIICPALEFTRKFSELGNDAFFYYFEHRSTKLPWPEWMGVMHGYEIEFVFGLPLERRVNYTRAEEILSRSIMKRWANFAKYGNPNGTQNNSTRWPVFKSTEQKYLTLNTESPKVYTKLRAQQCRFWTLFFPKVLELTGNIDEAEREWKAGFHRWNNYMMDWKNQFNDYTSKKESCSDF", "test": "Non-competitive inhibition of equine serum BChE using BTCI as substrate incubated for 5 mins followed by substrate addition and measured after 5 mins by spectrophotometric based Lineweaver-Burk plot analysis", "assay_type": "cell-free", "conditions": "time 10.0 min"}, "[4]": {"molecular_target": "Cholinesterase (Equus caballus, UniProt P81908)", "sequence (P81908 whole entry)": "as above", "description": "Inhibition of equine serum BChE using BTCI as substrate incubated for 5 mins followed by substrate addition and measured after 5 mins by spectrophotometric based Ellman's method"}, "[5]": {"tested_on": "Rattus norvegicus", "test": "Antiinflammatory activity against Wistar (Krf:WI) rat assessed as reduction in carragenan-induced paw edema at 22.5 mg/kg treated prior to carrageenan challenge and measured after 2 hrs by plethysmometry relative to control", "assay_type": "functional"}, "[6]": {"tested_on": "Mus musculus", "test": "as §1, with “early-phase” for “late-phase”, “30” for “15”, “3 hrs” for “7 days”, “61.2 %)” for “65.3%)”", "assay_type": "functional", "set-up": "scale not given: the % may be the effect or the level left", "conditions": "0.5 h"}, "[7]": {"tested_on": "Rattus norvegicus", "test": "Antiinflammatory activity against Wistar (Krf:WI) rat assessed as reduction in carragenan-induced paw edema at 22.5 mg/kg treated prior to carrageenan challenge and measured after 3 hrs by plethysmometry relative to control", "assay_type": "functional"}, "[8]": {"tested_on": "Rattus norvegicus", "test": "Antiinflammatory activity against Wistar (Krf:WI) rat assessed as reduction in carragenan-induced paw edema at 30 mg/kg treated prior to carrageenan challenge and measured after 3 hrs by plethysmometry relative to control", "assay_type": "functional"}, "[9]": {"tested_on": "Rattus norvegicus", "test": "Memory enhancement effect in dizocilpine-induced Wistar (Krf:WI) rat model of amnesia assessed as decrease in transfer latency time at 1.25 to 5 mg/kg, ip measured after 30 to 45 mins by elevated plus maze test", "assay_type": "functional, organism-based", "conditions": "dose 1.25-5 mg/kg, time 30-45 min"}, "[10]": {"molecular_target": "Acetylcholinesterase (Electrophorus electricus) (UniProt O42275)", "sequence (O42275 24-633 limits assumed)": "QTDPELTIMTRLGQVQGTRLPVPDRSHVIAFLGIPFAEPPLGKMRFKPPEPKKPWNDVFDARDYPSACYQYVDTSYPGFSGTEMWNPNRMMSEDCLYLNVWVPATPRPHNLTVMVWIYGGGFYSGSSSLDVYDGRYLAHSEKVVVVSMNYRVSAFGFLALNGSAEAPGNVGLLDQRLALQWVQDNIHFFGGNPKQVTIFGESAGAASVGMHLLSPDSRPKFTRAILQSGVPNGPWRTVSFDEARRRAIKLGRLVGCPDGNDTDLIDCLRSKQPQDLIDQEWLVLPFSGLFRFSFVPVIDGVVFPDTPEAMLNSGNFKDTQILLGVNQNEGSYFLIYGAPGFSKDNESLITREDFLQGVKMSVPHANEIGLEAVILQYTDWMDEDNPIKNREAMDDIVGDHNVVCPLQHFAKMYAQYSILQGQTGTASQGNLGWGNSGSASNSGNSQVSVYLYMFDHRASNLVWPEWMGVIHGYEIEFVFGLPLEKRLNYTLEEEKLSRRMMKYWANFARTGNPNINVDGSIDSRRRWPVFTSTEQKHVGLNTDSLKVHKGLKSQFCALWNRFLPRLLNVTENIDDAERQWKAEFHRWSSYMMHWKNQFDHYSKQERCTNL", "test": "Non-competitive inhibition of Electric eel AChE using ATCI as substrate incubated for 5 mins followed by substrate addition and measured after 5 mins by spectrophotometric based Lineweaver-Burk plot analysis", "conditions": "time 10.0 min"}, "[11]": {"tested_on": "Rattus norvegicus", "test": "Analgesic activity in carragenan-induced thermal hyperalgesia model of Wistar (Krf:WI) rat assessed as latency of nociceptive response for radiant heat stimulation at 30 mg/kg treated prior to carrageenan challenge and measured after 1 hr (reference value: 71.4%)", "assay_type": "functional"}, "[12]": {"tested_on": "Rattus norvegicus", "test": "Antiinflammatory activity against Wistar (Krf:WI) rat assessed as reduction in carragenan-induced paw edema at 30 mg/kg treated prior to carrageenan challenge and measured after 24 hrs by plethysmometry relative to control", "assay_type": "functional"}, "[13]": {"molecular_target": "Acetylcholinesterase (Electrophorus electricus) (UniProt O42275)", "test": "Non-competitive inhibition of Electric eel AChE using ATCI as substrate incubated for 5 mins followed by substrate addition and measured after 5 mins by spectrophotometric based Cornish-Bowden plot analysis", "conditions": "time 10.0 min"}, "[14]": {"molecular_target": "T1, MAO-A (Homo sapiens, UniProt P21397)", "T1 sequence (P21397 whole entry)": "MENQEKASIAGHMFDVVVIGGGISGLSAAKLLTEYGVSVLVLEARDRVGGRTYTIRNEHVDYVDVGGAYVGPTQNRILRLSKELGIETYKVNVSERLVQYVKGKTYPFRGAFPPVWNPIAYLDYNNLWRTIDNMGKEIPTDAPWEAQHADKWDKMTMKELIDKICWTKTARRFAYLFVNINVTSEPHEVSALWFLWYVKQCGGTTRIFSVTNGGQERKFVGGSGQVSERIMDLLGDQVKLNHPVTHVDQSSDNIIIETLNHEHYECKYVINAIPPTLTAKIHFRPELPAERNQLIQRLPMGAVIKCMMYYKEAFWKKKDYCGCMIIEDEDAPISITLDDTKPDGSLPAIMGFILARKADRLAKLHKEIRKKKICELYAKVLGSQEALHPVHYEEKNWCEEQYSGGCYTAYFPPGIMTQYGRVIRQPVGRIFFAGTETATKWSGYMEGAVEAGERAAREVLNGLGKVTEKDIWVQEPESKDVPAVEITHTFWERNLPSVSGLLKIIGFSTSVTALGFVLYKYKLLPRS", "test": "in vitro", "conditions": "probe p-tyramine", "description": "Inhibition of recombinant human MAO-A expressed in baculovirus infected BTI cells at 1 uM using p-tyramine as substrate by fluorometric assay relative to control"}, "[15]": {"molecular_target": "Cholinesterase (Equus caballus) (UniProt P81908)", "test": "Non-competitive inhibition of equine serum BChE using BTCI as substrate incubated for 5 mins followed by substrate addition and measured after 5 mins by spectrophotometric based Cornish-Bowden plot analysis", "assay_type": "cell-free", "conditions": "time 10.0 min"}, "[16]": {"tested_on": "Mus musculus", "test": "Analgesic activity in formalin-induced nociception CD-1 mouse model assessed as reduction in pain behaviour by measuring less licking of formalin injected hind paw compound administered intraperitoneally prior to formalin induction and measured during late phase (15 to 30 mins after formalin injection) by formalin test", "assay_type": "functional", "conditions": "CD-1, ip, time 15-30 min"}, "[17]": {"tested_on": "Rattus norvegicus", "test": "Antiinflammatory activity against Wistar (Krf:WI) rat assessed as reduction in carragenan-induced paw edema at 22.5 mg/kg treated prior to carrageenan challenge and measured after 1 hr by plethysmometry relative to control", "assay_type": "functional"}, "[18]": {"tested_on": "Mus musculus", "test": "as §1, with “30” for “15”", "assay_type": "functional", "set-up": "scale not given: the % may be the effect or the level left", "conditions": "0.5 h"}, "[19]": {"tested_on": "Rattus norvegicus", "test": "Antiinflammatory activity against Wistar (Krf:WI) rat assessed as reduction in carragenan-induced paw edema at 30 mg/kg treated prior to carrageenan challenge and measured after 6 hrs by plethysmometry relative to control", "assay_type": "functional"}},
  "note": "Calls of active or inactive are those of the source.",
  "data": [
    {"compound": "O=c1c2ccccc2oc2ccc(OCCCCCN3CCCCCC3)cc12", "values": [
      {"measurement": "IC50", "setting": "[1]", "value": 1.28, "unit": "µM"},
      {"measurement": "Activity", "setting": "[2]", "value": 85.9, "unit": "%"},
      {"measurement": "inhibition", "setting": "[3]", "value": "Active"},
      {"measurement": "IC50", "setting": "[4]", "value": 0.88, "unit": "µM"},
      {"measurement": "inhibition in vivo at 22.5 mg/kg", "setting": "[5]", "value": 32.8, "unit": "%"},
      {"measurement": "Activity", "setting": "[6]", "value": 95.6, "unit": "%"},
      {"measurement": "inhibition in vivo at 22.5 mg/kg", "setting": "[7]", "value": 26.5, "unit": "%"},
      {"measurement": "inhibition in vivo at 30 mg/kg", "setting": "[8]", "value": 52.1, "unit": "%"},
      {"measurement": "Activity", "setting": "[9]", "value": "Active"},
      {"measurement": "inhibition", "setting": "[10]", "value": "Active"},
      {"measurement": "Activity", "setting": "[11]", "value": 130, "unit": "%"},
      {"measurement": "inhibition in vivo at 30 mg/kg", "setting": "[12]", "value": 57.8, "unit": "%"},
      {"measurement": "inhibition", "setting": "[13]", "value": "Active"},
      {"measurement": "inhibition at 1 µM", "setting": "[14]", "value": 4, "unit": "%"},
      {"measurement": "inhibition", "setting": "[15]", "value": "Active"},
      {"measurement": "ED50", "setting": "[16]", "value": 11.3, "unit": "mg/kg"},
      {"measurement": "inhibition in vivo at 22.5 mg/kg", "setting": "[17]", "value": 36.1, "unit": "%"},
      {"measurement": "Activity", "setting": "[18]", "value": 100, "unit": "%"},
      {"measurement": "inhibition in vivo at 30 mg/kg", "setting": "[19]", "value": 44.9, "unit": "%"}
    ]}
  ]
}
